The test system of experiment [1] is spleen antibody producing cells against sheep red cells. Particulars: from the literature; cited from earlier work.
The test system of experiment [2] is BHK21/c13 (normal baby hamster kidney cells). The settings on record: Tjøtta E. (1968); cited from earlier work.
Experiment [3] deals with polyoma virus transformed BHK21/c13 cells, clone S100T1. In words: Clonal test: clonal growth of S100T1 cells in soft agar (Exp 2, 4, 6, 15, 16). The settings on record: for Clonal growth: Exp 15, plate read the 5th day, μM in wells: No 1 (4-OH—OPB) 20, 2 (Colchicine) 0.1, 3 (Diphenylhydantoin) 100, 4 (Podophyllotoxin) 0.3, 5 (Piroxicam) 50, 6 (Diclofenak) 100, 7 (Ibuprofen) 1000, 8 (Naproxen) 500, 9 (Acetylsalicylic acid) 1000. The format is cell-based, hamster. As for the experimental part:
The clonal test comprises: • 1. seeding cells in soft agar optionally containing growth factor(s); • 2. handling or incubation of special gels (e.g. ultra low gelling temperature agarose), including the production of cell density gradients. • 3. incubating in suitable temperature and atmosphere and; • 4. regular monitoring of the cells and development of clones.
The clonal test can be directed in fluid medium or in soft agar medium. Usually only transformed cells will form clones in soft agar.
After seeding and mixing, the tubes were placed in the refrigerator for about 1 hour to consolidate the ultra low melting point agarose.
120000 S100T1 cells of a polyoma virus transformed BHK21/c13 cell line, were seeded in 1 ml soft agar medium in Falcon 50 ml centrifuge tubes. […] On the top of the agar layer 0.5 ml fluid medium was added.
Agar cultures were prepared in wells of 24 well Falcon tissue culture plate. […] Insulin (Actrapid, Novo) was added in a concentration of 0.1 i.u./ml to BHK21/c13 cell cultures only.
The cells were all single cells. Each well received 32000 cells (Table 4). Plate: 24 wells Falcon tissue culture plate received a bottom layer composed as in Table 3:
The cells were all single cells.
The wells contained two layers, each of 0.3 ml agar.
The agarose was added to double distilled water and solved by heating in micro oven.

For experiment [4], the system named is polyoma virus transformed BHK21/c13 cells, line S100T1. In words: Collocation inhibition test: clonal growth in sparsely and densely seeded areas of a cell density gradient of S100T1 cells in soft agar (Exp 13, 17, 19-26).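 For Clonal growth, L low density area of cell gradient, High: grades rise with clonal growth and minus or plus-minus means none.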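 For Clonal growth, L low density area of cell gradient, Low: grades rise with clonal growth and minus or plus-minus means none.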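 For all read-outs here: soft agar cultures in 24-well plates with a cell density gradient in the top layer, compounds applied from DMSO stocks, clonal growth scored in sparse versus dense areas.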 The settings on record: for Clonal growth, H: high density area of cell gradient, High / Clonal growth, L: low density area of cell gradient, High / Clonal growth, H: high density area of cell gradient, Low / Clonal growth, L: low density area of cell gradient, Low / Clonal growth, H: high density area of cell gradient, Medium / Clonal growth, L: low density area of cell gradient, Medium: 4-OH-OPB analogues, S100T1 in soft agar; for Clonal growth, H: high density area of cell gradient, Medium / Clonal growth, L: low density area of cell gradient, Medium: medium concentration; for Inhibition of clonal growth of sparsely seeded cells: 117000 S100T1 cells/well.
Experimental: The cells should be grown in a top agar layer to avoid growth on the bottom surface. […] Both densely seeded and sparsely seeded areas were photographed.
Cells: The polyoma virus transformed offspring of BHK21/c13, S100T1, was grown on 75 cm^2 flasks on Eagles medium with 5% foetal calf serum. […] Foetal calf serum (0.7 ml) was added to each harvest. After low speed centrifugation the supernatant was discarded and the cells were dispersed in 1 ml FBS.
The concentration of ultra low gelling temperature agarose (Sigma) of the top agar layer with cells was also 0.8%. […] The addition of cells was performed at the same side of the wells in order to create similar cell density gradients. Finally the top layer agar was consolidated in the refrigerator.
After that it was incubated at 37 degrees in 5% CO2 atmosphere.
Agar cultures were prepared in Falcon 24 well tissue culture plate. Each well contained two agar layers of 0.3 ml.
Agar cultures were prepared in wells of Falcon 24 well tissue culture plate. Each contained two agar layers of 0.3 ml. […] The medium contained Eagles MEM and 10% foetal bovine serum (FBS).
The compounds were first solved in DMSO in 20 mM concentration and then diluted in medium. The top layer needed 60-90 minutes in the refrigerator for solidification before incubation in 37° C. with 5% CO2 atmosphere.
In this experiment the inhibitor was added to the bottom layer in order to get an easier way for making the cell density gradient. One side of the Falcon 24 well plate was elevated 12 degrees in the refrigerator for 60-90 minutes to solidify the bottom layer in an oblique position When then solidifying the cell containing top soft agar layer in horizontal position, the cell gradient constantly became good across the well. […] Another 90 minutes were spent in the refrigerator to consolidate the soft agar layer with cells in a horizontal position. Both layers contained 0.8% agarose, Eagles MEM and 10% FBS.
Tilting the plate 12 degrees when solidifying the bottom layer with the drug and casting the top layer with cells horizontally made a stable cell gradient.
The indicated compounds were added to soft agar cultures of the polyoma virus transformed cell line S100T1 of BHK21/c13 cells (Table 1). Agar cultures were prepared in wells of a Falcon 24 well tissue culture plate. The wells contained two agar layers of 0.3 ml. […] The bottom medium was identical, but without cells.
The compounds were first solved in DMSO in 20 mM concentration and then diluted in bottom medium. The agar layers needed 60-90 minutes in the refrigerator for consolidation before incubation at 37° C. in 5% CO2 atmosphere.

Setting [5] is: Exp 15, 5th day, Low conc., μM in wells: No 1 (4-OH—OPB) 2, 2 (Colchicine) 0.01, 3 (Diphenylhydantoin) 10, 4 (Podophyllotoxin) 0.03, 5 (Piroxicam) 5, 6 (Diclofenak) 10, 7 (Ibuprofen) 100, 8 (Naproxen) 50, 9 (Acetylsalicylic acid) 100, ” = as line above.
Setting [6] is: Experiment 22, H: area with high cell density, High concentration.
The mark [7] stands for this setting: Experiment 22, H: area with high cell density, Low concentration.
Where [8] appears, read: Experiment 22, H: area with high cell density, Medium concentration.
The mark [9] stands for this setting: Experiment 22, L: area with low cell density, High concentration.
Where [10] appears, read: Experiment 22, L: area with low cell density, Low concentration.
Setting [11] is: Summary Table 3 of analogue tests (experiments 22-25), H (high cell density), High concentration.
Setting [12] is: Summary Table 3 of analogue tests (experiments 22-25), H (high cell density), Low concentration.
[13] abbreviates: Summary Table 3 of analogue tests (experiments 22-25), H (high cell density), Medium concentration.
[14] abbreviates: Summary Table 3 of analogue tests (experiments 22-25), L (low cell density), High concentration.
Setting [15] is: Summary Table 3 of analogue tests (experiments 22-25), L (low cell density), Low concentration.

Entries after “also recorded” stand apart in the source; their conditions may differ.

As for `CN(C)N` [1-1-dimethylhydrazine], the “Effect on development of plaques in Jerne's test” value in experiment [1] is reported as “enhances development of plaques”.

In the case of “Insulin: Insulin Actrapid (Novo), 0.1 i.u./ml, growth factor”, the “Stimulation of clonal growth in soft agar culture” value in experiment [2] is listed as “stimulate clonal growth of normal, but not transformed cells”.

Regarding `O=C1N(c2ccccc2)N(c2ccccc2)C(=O)C1(O)CC[S+]([O-])c1ccccc1` (stereo not shown) [#6, 1,2-diphenyl-4-hydroxy-4-[2-(phenylsulfinyl)ethyl]-3,5-pyrazolidinedione], the Significance entry in experiment [3] (Exp 15, 5th day, High conc., μM in wells: No 1 (4-OH—OPB) 20, 2 (Colchicine) 0.1, 3 (Diphenylhydantoin) 100, 4 (Podophyllotoxin) 0.3, 5 (Piroxicam) 50, 6 (Diclofenak) 100, ” = as line above) is given as “””; in experiment [3] (setting [5]), “probably*”. Further, the Clonal growth entry is “++” in experiment [3] (High conc.); “++” in experiment [4] (setting [6]); “++” in experiment [4] (setting [7]); “++” in experiment [4] (setting [8]); “−” in experiment [4] (setting [9]); “++” in experiment [4] (setting [10]). Moreover, the Clonal growth entry in experiment [4] (setting [11]) is given as “++”; in experiment [4] (setting [12]) it was “++”; in experiment [4] (setting [13]), “++”; in experiment [4] (setting [14]), “−”; in experiment [4] (setting [15]), “++”. Besides, in experiment [4] (high concentration), the “Clonal growth, H: high density area of cell gradient, High” value was “++”. In experiment [4] (high concentration), the “Clonal growth, L: low density area of cell gradient, High” value is given as “−”. In addition, the “Clonal growth, H: high density area of cell gradient, Low” value in experiment [4] (low concentration) is “++”. Also, the “Clonal growth, L: low density area of cell gradient, Low” value in experiment [4] (low concentration) is recorded as “++”. Also, in experiment [4], the “Clonal growth, H: high density area of cell gradient, Medium” value is given as “++”. In addition, in experiment [4], the “Clonal growth, L: low density area of cell gradient, Medium” value is given as “((+))”. Further, the “Effect at low concentration” value in experiment [4] (Exp 22) is on record as “no effect was observed”. Also, the “Inhibition of clonal growth of sparsely seeded cells” value in experiment [4] (Exp 22) is “best inhibitor of clonal growth of sparsely seeded cells”. The “Clonal inhibition by 4-OH-OPB analogues, summary of Exp 22-25” value in experiment [4] (sparsely seeded areas while densely seeded areas of the same culture showed significant growth) is “complete inhibition of growth in sparsely seeded areas”.

As for `CC(=O)Oc1ccccc1C(=O)O` [Acetylsalicylic acid], the “Effect on clonal growth at 100 μM” value in experiment [3] (Exp 15, 32000 S100T1 cells/well) was “possibly inhibited significantly, but not completely”. Besides, the “Effect on clonal growth at 1000 μM” value in experiment [3] (Exp 15, 32000 S100T1 cells/well, 30 μl DMSO in the well might be toxic) is listed as “the inhibition is complete”. The Significance of results in experiment [3] (Exp 16, read after 14 days, Acetylsalicylic acid No 10, ca. 223 μM) is given as “probable”. Further, in experiment [3] (Exp 16, about 40000 S100T1 cells/well), the “Colony inhibiting activity for dosage within a range that might be therapeutic” value is “probably had a colony inhibiting activity”. The Significance result is on record as “probable” in experiment [3] (Exp 16 day 14, Acetylsalicylic acid No 10, 215 μM); “doubtful*” in experiment [3] (Exp 16 day 14, Acetylsalicylic acid No 10, 464 μM, doubtful because the solvent DMSO might be inhibiting); “possible” in experiment [3] (Exp 16 day 21, Acetylsalicylic acid No 10, 215 μM); “doubtful*” in experiment [3] (Exp 16 day 21, Acetylsalicylic acid No 10, 464 μM, *see conclusion (DMSO)). Further, the Growth result in experiment [3] (Exp 16 day 14, Acetylsalicylic acid No 10, 215 μM in wells) is reported as “(+))”; in experiment [3] (Exp 16 day 14, Acetylsalicylic acid No 10, 464 μM in wells) it was “(+))”; in experiment [3] (Exp 16 day 21, Acetylsalicylic acid No 10, 215 μM in wells), “(+)”; in experiment [3] (Exp 16 day 21, Acetylsalicylic acid No 10, 464 μM in wells), “(+))”. The “Anti-clonal effect, summary of Exp 15” value in experiment [3] (S100T1 in soft agar) is reported as “showed possible clonal inhibition at low”. Also, the “Clonal growth, L low density area of cell gradient, High” value in experiment [4] (preliminary results, Exp 13-18, 21-26, high concentration) is reported as “((+))”. For the same molecule, the “Clonal growth, L low density area of cell gradient, Low” value in experiment [4] (preliminary results, Exp 13-18, 21-26, low concentration) is reported as “(+)”. Further, in experiment [4] (preliminary results, in words), the “Effect on cell cloning in soft agar” value is “Possible inhibition of clonal growth”.

`CCCCC1(O)C(=O)N(c2ccccc2)N(c2ccc(OC)cc2)C1=O` (stereo not shown) [#7, 4-(1-butyl)-4-hydroxy-1-(4-methoxyphenyl)-2-phenyl-3,5-pyrazolidinedione]: the Significance entry in experiment [3] (setting [5]) was “no”. Besides, the Clonal growth entry in experiment [3] (High conc.) is “−”; in experiment [4] (setting [6]) it was “++”; in experiment [4] (setting [7]), “++”; in experiment [4] (setting [8]), “++”; in experiment [4] (setting [9]) it was “(+)”; in experiment [4] (setting [10]), “++”. Further, the Clonal growth entry was “++” in experiment [4] (Experiment 22, L: area with low cell density, Medium concentration); “++” in experiment [4] (setting [11]); “++” in experiment [4] (setting [12]); “++” in experiment [4] (setting [13]); “(+)” in experiment [4] (setting [14]); “++” in experiment [4] (setting [15]). Also, in experiment [4] (Summary Table 3 of analogue tests (experiments 22-25), L (low cell density), Medium concentration), the Clonal growth result is on record as “++”. Further, the “Clonal growth, H: high density area of cell gradient, High” value in experiment [4] (high concentration) was “++”. Further, in experiment [4] (high concentration), the “Clonal growth, L: low density area of cell gradient, High” value is given as “(+)”. The “Clonal growth, H: high density area of cell gradient, Low” value in experiment [4] (low concentration) is “++”. The “Clonal growth, L: low density area of cell gradient, Low” value in experiment [4] (low concentration) is reported as “++”. The “Clonal growth, H: high density area of cell gradient, Medium” value in experiment [4] is recorded as “++”. Also, the “Clonal growth, L: low density area of cell gradient, Medium” value in experiment [4] was “++”. For the same molecule, the “Inhibition of clonal growth of sparsely seeded cells” value in experiment [4] (Exp 22) is on record as “smallest effect; also recorded: might have a small similar effect”.

The values are drawn from patent publication US20060121449A1, “Method for selection of compounds which inhibit clonal cell growth and use thereof” (priority 2002, published 2006).
